Data from patent US10221163B2 (priority 2015, dated 2019).
Like-named read-outs stand apart in the source and are kept apart here.

Experiments:
[1] = tested on: Escherichia coli expressing NDM-1 (CLB30005, CLB30016); assay type: cell-based; settings: with imipenem 1 μg/ml; 95% inhibition of bacterial growth
Procedure, shortened: (§1)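 Colonies grown overnight on blood agar at 35° C were suspended in saline, diluted 1:100 into 1.1×CAMHB and dispensed. Imipenem was added to 1 μg/ml, then test compound. After 22 hours to 24 hours at 35° C, absorbance was recorded.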

[2] = tested on: Klebsiella pneumoniae expressing VIM-1 (IHMA599644); assay type: cell-based; settings: with imipenem 1 μg/ml; 95% inhibition of bacterial growth
Procedure, shortened: as §1

[3] = tested on: Serratia marcescens expressing IMP-1 (CL5741); assay type: cell-based; settings: with imipenem 1 μg/ml; 95% inhibition of bacterial growth
Procedure, shortened: as §1

[4] = tested on: Pseudomonas aeruginosa MB9798 vs MB9799; settings: ratio MITC95 PA_9798/MITC95 PA_9799
Procedure, shortened: (§2)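 Steps: add fixed imipenem and/or ceftazidime (usually CLSI breakpoint) and fixed AmpC-directed class A/C inhibitor to microbroth MIC wells; titrate MBL inhibitor; record concentration regaining susceptibility for each PAO1-derived strain; divide efflux+ by efflux− value.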

[5] = target: VIM-1 (Pseudomonas aeruginosa (strain ATCC 15692 / DSM 22644 / CIP 104116 / JCM 14847 / LMG 12228 / 1C / PRS 101 / PAO1), UniProt A0A0F7KYQ8); assay: biochemical; settings: CCF2-FA substrate, 30 pM enzyme, 2 hours at 25° C.
Procedure, shortened: (§3)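 Semi-log dose-response curves, fitted with a 4-parameter model, gave IC50s. The underlying signal was CCF2-FA fluorescence following 2 hours at 25° C with enzyme, substrate and inhibitor combined.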

[6] = tested on: Pseudomonas aeruginosa efflux+ (MB9798), IMP-1; assay type: cell-based; settings: concentration restoring susceptibility to imipenem at 2 μg/mL in the presence of a class A, C, D serine β-lactamase inhibitor closely related to relebactam
Procedure, shortened: as §2

[7] = target: NDM-1 (Klebsiella pneumoniae, UniProt C7C422); assay: biochemical; assay type: biochemical; settings: fluorescence assay, CCF2-FA substrate, 1 pM enzyme, 2 hours at 25° C.; read-out: NDM-1 IC50
Sequence of NDM-1 (C7C422 whole entry, looked up, species assumed): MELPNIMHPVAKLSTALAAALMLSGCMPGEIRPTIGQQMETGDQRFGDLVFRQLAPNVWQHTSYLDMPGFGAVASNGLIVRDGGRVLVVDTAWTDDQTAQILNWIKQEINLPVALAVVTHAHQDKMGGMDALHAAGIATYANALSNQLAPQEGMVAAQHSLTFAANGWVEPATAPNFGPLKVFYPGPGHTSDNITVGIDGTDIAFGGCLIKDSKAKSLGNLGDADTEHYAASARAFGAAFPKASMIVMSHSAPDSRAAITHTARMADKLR
Procedure, shortened: as §3

[8] = target: IMP-1 (Serratia marcescens, UniProt P52699); assay: biochemical; assay type: biochemical; settings: fluorescence assay, CCF2-FA substrate, 2 pM enzyme, 2 hours at 25° C.; read-out: IMP-1 IC50
Sequence of IMP-1 (P52699 whole entry, looked up, species assumed): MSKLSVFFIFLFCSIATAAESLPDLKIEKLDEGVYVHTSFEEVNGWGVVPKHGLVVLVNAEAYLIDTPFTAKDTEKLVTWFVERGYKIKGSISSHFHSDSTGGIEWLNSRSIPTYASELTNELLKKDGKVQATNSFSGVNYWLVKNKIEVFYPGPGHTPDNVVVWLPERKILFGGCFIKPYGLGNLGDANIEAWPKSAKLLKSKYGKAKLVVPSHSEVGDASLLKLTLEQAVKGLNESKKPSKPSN
Procedure, shortened: as §3

[9] = tested on: Pseudomonas aeruginosa efflux− (MB9799), IMP-1; assay type: cell-based; settings: concentration restoring susceptibility to imipenem at 2 μg/mL in the presence of a class A, C, D serine β-lactamase inhibitor closely related to relebactam
Procedure, shortened: as §2

[10] = fluorescence assay, read-out: VIM-1 IC50

SMILES: CNC(=O)CNS(=O)(=O)c1ccc(-c2cccc3sc(N)nc23)c(-c2nnn[nH]2)c1S(N)(=O)=O [Example 23, N^2-{[4-(2-amino-1,3-benzothiazol-4-yl)-2-sulfamoyl-3-(1H-tetrazol-5-yl)phenyl]sulfonyl}-N-methylglycinamide]
- Escherichia coli expressing NDM-1 (CLB30016) MITC95 [1]: 25 µM
- Klebsiella pneumoniae expressing VIM-1 (IHMA599644) MITC95 [2]: 12.5 µM
- Serratia marcescens expressing IMP-1 (CL5741) MITC95 [3]: 6.25 µM
- Efflux ratio [4]: 1.00
- IC50 ([5]; VIM-1 IC50, fluorescence assay): 0.224 nM
- P. aeruginosa expressing IMP-1, efflux + (MB9798) MITC95 [6]: 3.125 µM
- IC50 [7]: 0.0511 nM
- IC50 [8]: 0.294 nM
- P. aeruginosa expressing IMP-1, efflux − (MB9799) MITC95 [9]: 3.125 µM

SMILES: COCCNS(=O)(=O)c1ccc(-c2cccc3sc(N)nc23)c(-c2nnn[nH]2)c1S(N)(=O)=O [Example 24, 4-(2-amino-1,3-benzothiazol-4-yl)-N^1-(2-methoxyethyl)-3-(1H-tetrazol-5-yl)benzene-1,2-disulfonamide]
- Escherichia coli expressing NDM-1 (CLB30016) MITC95 [1]: 25 µM
- Klebsiella pneumoniae expressing VIM-1 (IHMA599644) MITC95 [2]: 12.5 µM
- Serratia marcescens expressing IMP-1 (CL5741) MITC95 [3]: 3.125 µM
- Efflux ratio [4]: 4.00
- IC50 [5, 10]: 0.205 nM
- P. aeruginosa expressing IMP-1, efflux + (MB9798) MITC95 [6]: 12.5 µM
- IC50 [7]: 0.0732 nM
- IC50 [8]: 0.235 nM
- P. aeruginosa expressing IMP-1, efflux − (MB9799) MITC95 [9]: 3.125 µM

SMILES: Nc1nc2c(-c3ccc(S(=O)(=O)N4CCC(CO)CC4)c(S(N)(=O)=O)c3-c3nnn[nH]3)cccc2s1 [Example 25, 3-(2-amino-1,3-benzothiazol-4-yl)-6-{[4-(hydroxymethyl)piperidin-1-yl]sulfonyl}-2-(1H-tetrazol-5-yl)benzenesulfonamide]
- Escherichia coli expressing NDM-1 (CLB30016) MITC95 [1]: 25 µM
- Klebsiella pneumoniae expressing VIM-1 (IHMA599644) MITC95 [2]: 25 µM
- Serratia marcescens expressing IMP-1 (CL5741) MITC95 [3]: 6.25 µM
- Efflux ratio [4]: 16.00
- IC50 [5, 10]: 4.52 nM
- P. aeruginosa expressing IMP-1, efflux + (MB9798) MITC95 [6]: 50 µM
- IC50 [7]: 3.02 nM
- IC50 [8]: 2.24 nM
- P. aeruginosa expressing IMP-1, efflux − (MB9799) MITC95 [9]: 3.125 µM

SMILES: CN(C)C1CCN(S(=O)(=O)c2ccc(-c3cccc4sc(N)nc34)c(-c3nnn[nH]3)c2S(N)(=O)=O)CC1 [Example 26, 3-(2-amino-1,3-benzothiazol-4-yl)-6-{[4-(dimethylamino)piperidin-1-yl]sulfonyl}-2-(1H-tetrazol-5-yl)benzenesulfonamide]
- Escherichia coli expressing NDM-1 (CLB30016) MITC95 [1]: 12.5 µM
- Klebsiella pneumoniae expressing VIM-1 (IHMA599644) MITC95 [2]: 12.5 µM
- Serratia marcescens expressing IMP-1 (CL5741) MITC95 [3]: 3.125 µM
- Efflux ratio [4]: 2.00
- IC50 [5, 10]: 1.66 nM
- P. aeruginosa expressing IMP-1, efflux + (MB9798) MITC95 [6]: 6.25 µM
- IC50 [7]: 0.974 nM
- IC50 [8]: 1.15 nM
- P. aeruginosa expressing IMP-1, efflux − (MB9799) MITC95 [9]: 3.125 µM

SMILES: CN1CCN(S(=O)(=O)c2ccc(-c3cccc4sc(N)nc34)c(-c3nnn[nH]3)c2S(N)(=O)=O)CC1 [Example 27, 3-(2-amino-1,3-benzothiazol-4-yl)-6-[(4-methylpiperazin-1-yl)sulfonyl]-2-(1H-tetrazol-5-yl)benzenesulfonamide]
- Escherichia coli expressing NDM-1 (CLB30016) MITC95 [1]: 12.5 µM
- Klebsiella pneumoniae expressing VIM-1 (IHMA599644) MITC95 [2]: 25 µM
- Serratia marcescens expressing IMP-1 (CL5741) MITC95 [3]: 6.25 µM
- Efflux ratio [4]: 2.00
- IC50 [5, 10]: 1.92 nM
- P. aeruginosa expressing IMP-1, efflux + (MB9798) MITC95 [6]: 12.5 µM
- IC50 [7]: 0.825 nM
- IC50 [8]: 1.59 nM
- P. aeruginosa expressing IMP-1, efflux − (MB9799) MITC95 [9]: 6.25 µM

SMILES: Nc1nc2c(-c3ccc(S(=O)(=O)N4CCNC(=O)C4)c(S(N)(=O)=O)c3-c3nnn[nH]3)cccc2s1 [Example 28, 3-(2-amino-1,3-benzothiazol-4-yl)-6-[(3-oxopiperazin-1-yl)sulfonyl]-2-(1H-tetrazol-5-yl)benzenesulfonamide]
- Escherichia coli expressing NDM-1 (CLB30016) MITC95 [1]: 25 µM
- Klebsiella pneumoniae expressing VIM-1 (IHMA599644) MITC95 [2]: 12.5 µM
- Serratia marcescens expressing IMP-1 (CL5741) MITC95 [3]: 6.25 µM
- Efflux ratio [4]: 4.00
- IC50 [5, 10]: 0.726 nM
- P. aeruginosa expressing IMP-1, efflux + (MB9798) MITC95 [6]: 12.5 µM
- IC50 [7]: 0.646 nM
- IC50 [8]: 0.646 nM
- P. aeruginosa expressing IMP-1, efflux − (MB9799) MITC95 [9]: 3.125 µM

SMILES: Nc1nc2c(-c3ccc(S(=O)(=O)N4CCOCC4)c(S(N)(=O)=O)c3-c3nnn[nH]3)cccc2s1 [Example 29, 3-(2-amino-1,3-benzothiazol-4-yl)-6-(morpholin-4-ylsulfonyl)-2-(1H-tetrazol-5-yl)benzenesulfonamide]
- Escherichia coli expressing NDM-1 (CLB30016) MITC95 [1]: 25 µM
- Klebsiella pneumoniae expressing VIM-1 (IHMA599644) MITC95 [2]: 25 µM
- Serratia marcescens expressing IMP-1 (CL5741) MITC95 [3]: 6.25 µM
- Efflux ratio [4]: 16.00
- IC50 ([5]; VIM-1 IC50, fluorescence assay): 3.06 nM
- P. aeruginosa expressing IMP-1, efflux + (MB9798) MITC95 [6]: 50 µM
- IC50 [7]: 1.35 nM
- IC50 [8]: 2.08 nM
- P. aeruginosa expressing IMP-1, efflux − (MB9799) MITC95 [9]: 3.125 µM

SMILES: Nc1nc2c(-c3ccc(S(=O)(=O)NCCC4CNC4)c(S(N)(=O)=O)c3-c3nnn[nH]3)cccc2s1 [Example 30, 4-(2-amino-1,3-benzothiazol-4-yl)-N1-(2-azetidin-3-ylethyl)-3-(1H-tetrazol-5-yl)benzene-1,2-disulfonamide]
- Escherichia coli expressing NDM-1 (CLB30016) MITC95 [1]: 6.25 µM
- Klebsiella pneumoniae expressing VIM-1 (IHMA599644) MITC95 [2]: 6.25 µM
- Serratia marcescens expressing IMP-1 (CL5741) MITC95 [3]: 3.125 µM
- Efflux ratio [4]: 1.00
- IC50 ([5]; VIM-1 IC50, fluorescence assay): 0.308 nM
- P. aeruginosa expressing IMP-1, efflux + (MB9798) MITC95 [6]: 1.563 µM
- IC50 [7]: 0.0686 nM
- IC50 [8]: 0.369 nM
- P. aeruginosa expressing IMP-1, efflux − (MB9799) MITC95 [9]: 1.563 µM

SMILES: CNCCNS(=O)(=O)c1ccc(-c2cccc3sc(N)nc23)c(-c2nnn[nH]2)c1S(N)(=O)=O [Example 31, 4-(2-amino-1,3-benzothiazol-4-yl)-N^1-[2-(methylamino)ethyl]-3-(1H-tetrazol-5-yl)benzene-1,2-disulfonamide]
- Escherichia coli expressing NDM-1 (CLB30016) MITC95 [1]: 9.375 µM
- Klebsiella pneumoniae expressing VIM-1 (IHMA599644) MITC95 [2]: 6.25 µM
- Serratia marcescens expressing IMP-1 (CL5741) MITC95 [3]: 2.344 µM
- Efflux ratio [4]: 1.50
- IC50 [5, 10]: 8.18 nM
- P. aeruginosa expressing IMP-1, efflux + (MB9798) MITC95 [6]: 2.344 µM
- IC50 [7]: 2.59 nM
- IC50 [8]: 2.02 nM
- P. aeruginosa expressing IMP-1, efflux − (MB9799) MITC95 [9]: 1.563 µM
